Experimental data reported in publication PMC8305076, “Comprehensive Evaluation of Biological Effects of Pentathiepins on Various Human Cancer Cell Lines and Insights into Their Mode of Action” (International Journal of Molecular Sciences, 2021).
Like-named read-outs stand apart in the source and are kept apart here.

Columns and labels:
MCF-7 = assay: MTT cell viability assay; format: cell-based, human
Experimental: Distinct MTT cell viability and crystal violet cell proliferation assays were performed to assess the cytotoxicity of the compounds 1–6 on 14 human cancer cell lines. In the viability assay, cells with intact mitochondria and thus active dehydrogenases are competent to convert MTT to the corresponding insoluble formazan. The formazan can be photometrically detected after solubilization and allows for indirect conclusions about the viability of the cells as an IC50 value. In the crystal violet assay, cells are stained by the binding of the dye to the chromatin, thus allowing for a quantification of biomass that remains adherent after a treatment in comparison with a control after a specific time. Potency is defined as the growth inhibitory concentration 50% (GI50).
In addition to performing the cell viability assay under normoxia (19% atmospheric oxygen), incubations were also conducted under hypoxic conditions, i.e., atmospheric oxygen levels of 1% during the treatment for 48 h. Hypoxia is a favorable condition of the tumor microenvironment that is connected with poor outcome. Therefore, the low oxygen condition mimics better the tumor environment. The biological effect of the pentathiepins under this condition provides insight into their dependency for oxygen, which has been postulated a key component in the proposed mechanism of action (Figure 3). Consistent with the proposed mechanism of action for five of the compounds, potency decreased under hypoxic conditions; in fact for 6, the half-maximal inhibitory concentration exceeded the highest tested concentration of 10 µM in four cell lines (Figure 6, Table S3). […] In contrast to the other compounds, in some cell lines, the cytotoxic effects of 1 were more pronounced under oxygen-reduced incubation conditions (Figure 6), indicating a tangential role of oxygen availability for this pentathiepin. Especially for the breast cancer cell line MCF-7, the cytotoxicity increased substantially, indicated by a decrease of the IC50 from >10.0 µM to about 1.0 µM.
The effect of the pentathiepins on the viability of the cell lines was assessed via an MTT assay, performed as previously described. Healthy and viable cells convert the yellow soluble 3-(4,5-dimethylthiazol-2-yl)-2,5-diphenyltetrazolium bromide to the insoluble purple corresponding formazan, which can be spectrophotometrically measured. For this assay, 5000 cells (1 250 for LCLC-103H) in 0.1 mL of medium were seeded per well of a 96-well plate and incubated at standard conditions for 24 h prior to treatment. A serial dilution of the test compounds was prepared in medium, covering final concentrations from 10.0 to 0.04 µM, and 0.1 mL of the working solution was added to each well in triplicate. After 48 h, 20 µL of a 2.5 mg/mL MTT in PBS solution was pipetted into each well and further incubated for 4 h at standard conditions. Thereafter, medium was replaced with 50 µL DMSO, and the plates were put on a shaker for 5 min and subsequently read at λ = 570 nm, with a SpectraMax 384plus (Molecular Devices, Sunnyvale, CA, USA). The cell viabilities of the treatment conditions were calculated in relation to a solvent control sample. The absolute IC50 was calculated via nonlinear regression followed by interpolation of the dose–response graphs in Prism 7 (GraphPad, San Diego, CA, USA). The IC90 was derived from the IC50 by using the slope factor of the dose–response graph with the tool QuickCalcs from GraphPad (GraphPad Software, San Diego, CA, USA).

seven cancer cell lines = assay: DCFDA flow cytometric ROS assay, acute; format: cell-based, human; parameters: key: no impact (0); weak impact (+); strong impact (++); conditions: summary grade
Experimental: According to the hypothesized mechanism of action (see Figure 3), pentathiepins can create oxidative stress via generation of reactive sulfur precursors. We have previously reported that a representative pentathiepin can increase the intracellular levels of ROS in two cancer cell lines. This effect was thus further evaluated with the new compounds in seven cell lines (Figure 8). The cells were incubated for 15 min with 25.0 µM pentathiepin and subsequently analyzed by using the intracellular ROS sensor 2′,7′-dichlorodihydrofluorescein diacetate (DCFDA) by flow cytometry.
In order to quantify intracellular ROS, we performed a flow cytometric assay based on the ROS-sensor 2′,7′-dichlorofluorescein diacetate (DCFDA). For acute effects of pentathiepins on intracellular ROS levels, the cells were stained with DCFDA first and subsequently incubated with 25 µM of compound for 10 min. […] Per condition, 250,000 cells were seeded in 2 mL of medium per well of a 6-well plate and allowed to adhere overnight. For measurement of acute ROS, the cells were stained with 1 mL of a 20 µM DCFDA-PBS solution for 30 min under standard incubation conditions. Afterwards, the solution was discarded, and the monolayer washed twice with 1 mL of PBS before 3 mL of medium containing 25 µM of pentathiepin was added for 10 min at 37 °C. After removing the solution and washing again with PBS, the cells were detached by using 0.5 mL of a diluted trypsin/EDTA-PBS solution (25%) and harvested with 1 mL of culture medium by carefully rinsing the wells. The cell suspension was transferred to 1.5 mL tubes, centrifuged for 5 min at 500× g, and washed with 1 mL of PBS. After removing the supernatant, each pellet was resuspended in 0.5 mL of PBS for measurement via the MACSquant Analyzer 10 at λEx/Em = 488/530 nm. Relative ROS levels resulting from treatment with pentathiepin were calculated by relating the fluorescence intensity of treated samples to the negative control. For the experiments covering periods of 24 and 48 h, the cells were incubated with the compounds first and stained with DCFDA afterwards. To assess the influence of additional GSH, we included 3 or 30 µM GSH to the medium containing 25 µM of pentathiepin, and the protocol was followed as described.

[1] = Homo sapiens, MCF7, 48 h, hypoxic (1% O2), read-out: IC50 MTT-H mean
[2] = Homo sapiens, MCF7, 48 h, normoxic (19% O2), read-out: IC50 MTT-N mean

SMILES	IC50 (MCF-7; 48 h, hypoxic (1% O2), read-out: IC50 MTT-H mean) [µM]	IC50 (MCF-7; [1]) [µM]	IC50 (MCF-7; [2]) [µM]	ROS induction (seven cancer cell lines)
CCOc1c2c(c3cnc4[nH]c(-c5ccc(OC)cc5)cc4n13)SSSSS2 [Compound 1, 11-Ethoxy-2-(4-methoxyphenyl)-3H-[1,2,3,4,5]pentathiepino[6′,7′:3,4]pyrrolo[1,2-a]pyrrolo[2,3-e]pyrazine]	0.97	~1	> 10	0
CCOc1c2c(c3ccc(C(=O)N4CCCCC4)cn13)SSSSS2 [Compound 2, (6-Ethoxy-[1,2,3,4,5]pentathiepino[6,7-a]indolizin-9-yl)(piperidinyl)methanone]		> 10	3.04	++
CCOc1c2c(c3ccc(C(=O)N4CCOCC4)cn13)SSSSS2 [Compound 3, (6-Ethoxy-[1,2,3,4,5]pentathiepino[6,7-a]indolizin-9-yl)(morpholino)methanone]		3.56	1.68	++
CCOc1c2c(c3ccc(C(=O)N(CC)CC)cn13)SSSSS2 [Compound 4, 6-Ethoxy-N,N’-diethyl-[1,2,3,4,5]pentathiepino[6,7-a]indolizine-9-carboxamide]		3.56	3.21	++
CCOc1c2c(c3ccc(C(=O)N4CCN(C(=O)c5ccc(F)cc5)CC4)cn13)SSSSS2 [Compound 5, (6-Ethoxy-[1,2,3,4,5]pentathiepino[6,7-a]indolizin-9-yl)(4-(4-fluorobenzoyl)piperazinyl)methanone]		3.01	1.64	++
CCOc1c2c(c3ccc(C(=O)N4CCN(S(=O)(=O)c5ccc(C)cc5)CC4)cn13)SSSSS2 [Compound 6, (6-Ethoxy-[1,2,3,4,5]pentathiepino[6,7-a]indolizin-9-yl)(4-tosylpiperazinyl)methanone]		> 10	3.99	+
